Values joined by “and” are separate entries in the source; they are usually repeats but may differ in a detail not shown here. Identical values can stand only once.
Columns and labels:
MRC-5 cells [1] = experiment: HGF production in MRC-5 cells with cycloheximide (protein synthesis inhibitor); assay type: cell-based, Human; conditions: for Amount of HGF Produced (in Medium): control = 100%
Protocol: (1) Five-hundred microliters of a solution containing MRC-5 cells suspended in a DME medium containing 10% fetal bovine serum so as to have a concentration of 1 × 10^5 cells/ml were added into each well of a 48-well cell culture plate. The cells were cultured at 37°C for 24 hours in the presence of 5% CO2, and then the medium was exchanged for a DME medium containing 1% fetal bovine serum. Thereafter, cycloheximide (protein synthesis inhibitor: manufactured by nacalaitesque) was added thereto so as to have a final concentration of 0, 1, or 10 µg/ml, and a sample to be analyzed was further added thereto. Thereafter, the cells were cultured for 24 hours. This medium was collected, and the amount of HGF in the medium was determined by using the HGF ELISA Kit. The fucoidan derived from Kjellmaniella crassifolia described in item (1) of Reference Example 1 was added so as to have a final concentration of 1, 10 or 100 µg/ml. As a control, distilled water was added in the same volume as that of the sample. Each experiment was carried out twice, and an average value was taken. In Table 50, the amount of HGF produced of the control was regarded as 100%.
(2) Five-hundred microliters of MRC-5 cells (CCL171: manufactured by DAINIPPON PHARMACEUTICAL CO., LTD., code. 02-021) suspended in a DME medium containing 10% fetal bovine serum so as to have a concentration of 1 × 10^5 cells/ml were added into each well of a 48-well cell culture plate. The cells were cultured at 37°C for 24 hours in the presence of 5% CO2, and then the medium was exchanged for a DME medium containing 1% fetal bovine serum. Thereafter, cycloheximide (protein synthesis inhibitor: manufactured by nacalaitesque) was added thereto so as to have a final concentration of 0, 1, or 10 µg/ml, and a sample to be analyzed was further added thereto. The cells were then cultured for 24 hours. This medium was collected, and the amount of HGF in the medium was determined by using Quantikine Human Hepatocyte Growth Factor (HGF) ELISA Kit (manufactured by Funakoshi, Code. RS-0641-00). In addition, the cells were washed with PBS, and thereafter dissolved in 500 µl of a cytolytic buffer (50 mM HEPES, pH 7.4; 10 mM EDTA, 0.1% Triton x 100; 1 mM PMSF; 1 µg/ml pepstatin A and 1 µg/ml leupeptin). Further, in order to completely dissolve the cells, the mixture was subjected to sonication treatment, and then centrifuged, to give a supernatant (cell extract). The amount of HGF in the cell was determined in the same manner as that of the concentration of HGF in the medium. As to the amount of HGF produced, negative control was regarded as 100%. As to the inhibitory ratio, the inhibitory ratio (%) in the cycloheximide-added fraction was calculated on the basis of the amount of HGF produced when 7-12SFd-F was added alone at each concentration. 7-12SFd-F was added so as to have a final concentration of 1, 10 or 100 µg/ml. As the negative control, distilled water was added in the same volume as that of the sample. Each experiment was carried out three times, and an average value was taken. […] It was clarified from these findings that protein synthesis was involved in the induction of HGF production by 7-12SFd-F, not simply freeing of HGF from the cells.

MRC-5 cells [2] = experiment: induction action for HGF production in MRC-5 cells (HGF ELISA of medium); assay type: cell-based, Human; conditions: 24 h, control = 100%
Protocol: (1) Five-hundred microliters each of MRC-5 cells (CCL171: manufactured by DAINIPPON PHARMACEUTICAL CO., LTD., code. 02-021) suspended in a DME medium containing 10% fetal bovine serum so as to have a concentration of 1 × 10^5 cells/ml were added into each well of a 48-well cell culture plate. The cells were cultured at 37°C for 24 hours in the presence of 5% CO2, and then the medium was exchanged for a DME medium containing 1% fetal bovine serum. […] The medium was then collected, and by using Quantikine Human Hepatocyte Growth Factor (HGF) ELISA Kit (manufactured by Funakoshi, Code. RS-0641-00), the amount of HGF in the medium was determined.
As a control, distilled water was added in the same volume as that of the sample. The amount of HGF of the control was 7.2 ng/ml. The amount of HGF produced in each sample-added group is shown in Table 1, assuming that the value of the control is 100%. Each experiment was carried out twice, and its average value was taken.

Compound | Amount of HGF Produced (MRC-5 cells [2]; sample 10 µg/ml) | Amount of HGF Produced (MRC-5 cells [2]; sample 100 µg/ml) | Amount of HGF Produced (MRC-5 cells [2]; sample 1000 µg/ml) | Amount of HGF Produced (MRC-5 cells [2]; sample 1 µg/ml) | also measured
C[C@@H]1C[C@@H]([C@H](O)CC2CC(=O)NC(=O)C2)C(=O)[C@@H](C)C1 [Cycloheximide, cycloheximide] |  |  |  |  | Amount of HGF Produced (Total in Cells and in Medium) (MRC-5 cells [1]; Cycloheximide 1 µg/ml alone): 31%; Inhibitory Ratio Where Cycloheximide Non-Added Group Was Regarded as 100% (Total in Cells and in Medium) (MRC-5 cells [1]; Cycloheximide 1 µg/ml alone): 69%; Inhibitory Ratio Where Cycloheximide Non-Added Group Was Regarded as 100% (in Medium) (MRC-5 cells [1]; Cycloheximide 1 µg/ml alone): 60%; Amount of HGF Produced (in Medium) (MRC-5 cells [1]; Cycloheximide 1 µg/ml alone): 35% and 40%; Amount of HGF Produced (Total in Cells and in Medium) (MRC-5 cells [1]; Cycloheximide 10 µg/ml alone): 27%; Inhibitory Ratio Where Cycloheximide Non-Added Group Was Regarded as 100% (Total in Cells and in Medium) (MRC-5 cells [1]; Cycloheximide 10 µg/ml alone): 73%; Inhibitory Ratio Where Cycloheximide Non-Added Group Was Regarded as 100% (in Medium) (MRC-5 cells [1]; Cycloheximide 10 µg/ml alone): 60%; Amount of HGF Produced (in Medium) (MRC-5 cells [1]; Cycloheximide 10 µg/ml alone): 27% and 40%
sodium salt of sulfated 2-deoxy-glucose | 127% | 102% | 239% |  | 
sodium salt of sulfated D-(+)- mannose [Sodium Salt of Sulfated Mannose] | 175% | 456% |  | 112% | 
sodium salt of sulfated D-(+)- xylose [Sodium Salt of Sulfated Xylose] | 110% | 112% | 284% |  | 
sodium salt of sulfated D-(+)-galactose [Sodium Salt of Sulfated Galactose] |  | 166% |  |  | 
sodium salt of sulfated D-(+)-glucose [Sodium Salt of Sulfated Glucose] | 377% | 864% |  | 178% | 
sodium salt of sulfated D-glucitol [Sodium Salt of Sulfated Glucitol] | 112% | 203% | 335% |  | 
sodium salt of sulfated D-talose [Sodium Salt of Sulfated Talose] | 112% | 263% | 494% |  | 
sodium salt of sulfated cellobiose | 100% | 143% | 546% |  | 
sodium salt of sulfated dodecyl-maltohexaose | 289% | 371% | 359% |  | 
sodium salt of sulfated isomaltose | 134% | 301% | 477% |  | 
sodium salt of sulfated lactose | 185% | 410% |  | 118% | 
sodium salt of sulfated lactulose | 139% | 376% | 583% |  | 
sodium salt of sulfated maltoheptaose | 341% | 486% | 706% |  | 
sodium salt of sulfated maltohexaose | 407% | 571% | 761% |  | 
sodium salt of sulfated maltose | 273% | 439% |  | 142% | 
sodium salt of sulfated maltotriose | 286% | 387% |  | 151% | 
sodium salt of sulfated melibiose | 240% | 403% | 667% |  | 
sodium salt of sulfated palatinose | 132% | 278% | 519% |  | 
sodium salt of sulfated sucrose | 355% | 501% |  | 173% | 
sodium salt of sulfated trehalose | 447% | 421% |  | 277% | 
sodium salt of sulfated turanose | 127% | 203% | 379% |  | 

Reference: patent publication EP1175907A1, “REMEDIES” (Takara Shuzo Co, Ltd., priority 1999, dated 2000)
